# Test results: US6372741B1, “Use of CSAID™ compounds as inhibitors of angiogenesis” (SmithKline Beecham Corporation, priority 1996, dated 2002)
# Legend:
# [1] = system: angiogenesis in granuloma (vascular index); assay: Murine air pouch granuloma model: vascular index by carmine vascular cast; assay type: in vivo, mice; details: for maximum reduction in vascular index: Compound I at 50 mg.kg, bid, i.p., versus vehicle control
# Text: (§1) The murine airpouch granuloma model of chronic inflammation (Kimura et al., 1985, J. Pharmacobio-Dyn., 8:393-400; Colville-Nash et al.,1995, J. Pharm. and Exp. Ther., 274:1463-1472) whose disclosure is incorporated herein by reference in its entirety, is characterized by inflammatory cell influx, fibrous tissue proliferation and intense angiogenesis. […] In addition, angiogenesis can be accurately quantitated by a vascular casting method.
# (§2) Murine air pouch granuloma model
# (§3) Day-1, mice are anesthetized using Aerrane (isoflurane) gas (5%), after which 3mls of air is injected into the dorsal subcutaneous tissue using a 27 g needle. Mice are allowed to recover.
# (§4) Day 0, mice are again anesthetized using Aerrane, once anesthetized 0.5 ml of Freunds complete adjuvant with 0.1% v/v croton oil is injected into the air pouch formed on Day-1. The animals also begin their dosing regime (number of days dependent upon study) with the animals typically receiving compound in 0.2 ml N,N, Dimethyl Acetoacetamide(DMA)(Sigma, St. Louis, Mo.)/Cremephor El (Sigma, St. Louis, Mo.)/saline (10/10/80) or other appropriate vehicle. The animals are allowed to recover and all subsequent dosing is performed on the animals in the absence of anesthetics.
# (§5) Days 1-5, animals are dosed according to schedule.
# […] Louis, Mo.)/gelatin (5%)(Sigma, St. Louis, Mo.) solution. The animals are then sacrificed by lethal dose of anesthesia and chilled at 4 C for 2 hours prior to the removal of the granuloma tissue.
# (§6) When the granuloma is removed it is weighed and then dried for 3 days at 45 C and reweighed. The dried tissue is then digested in 0.9 ml of a 0.05M phosphate buffer pH 7.0 containing 12 U/ml^−1 papain (Sigma, St. Louis, Mo.) and 0.33 g/L^−1 N-acetyl-1-Cysteine (Sigma, St. Louis, Mo.) at 57 C for 3 days. After 3 days digestion the carmine red is solubilized by the addition of 0.1 ml 5 mM NaOH. Samples are centrifuged and then filtered using 0.2 um acrodiscs. The carmine content is then determined against a carmine red standard curve (0.5 to 2 mg/ml) generated in extracted tissue from non carmine treated animals and read at 490 nm. Sample and standard values are determined using DeltaSoft Elisa analysis software (Biometallics Inc., Princeton, N.J.). The carmine content is then used to determine the vascular indexes for the various treatments, vascular index being the mg carmine dye/gm dry tissue.
# [2] = system: granuloma size (dry weight); assay: Murine air pouch granuloma model: granuloma size by dry weight; assay type: in vivo, mice; details: for effect on granuloma size as measured by dry weight: day 6 granuloma
# Text: as §1, §2, §3, §4, §5
# Louis, Mo.)/gelatin (5%)(Sigma, St. Louis, Mo.) solution. […]
# as §6, with “The carmine content is then used to determine the vascular indexes for the various treatments, vascular index being the mg carmine dye/gm dry tissue.” left out
# [3] = system: granuloma vasculature; assay: Microscopic evaluation of vasculature in day 6 granulomas; assay type: in vivo; details: treated versus untreated mice
# Text: Angiogenesis in the granuloma was microscopically evaluated. The vasculature of day 6 granulomas from both untreated and compound I treated mice was examined. […] In fact, there was a almost no fine capillaries visible, only a few larger vessels.
# [4] = system: TNF-α; assay: TNF-α levels in granuloma tissue homogenates by ELISA; assay type: in vivo, mice; details: 30 mg/kg orally twice a day; day 7
# Description: (§7) The levels of these cytokines over the course to granuloma development were measured to determine if the modulation of their expression by the compound correlated with angiogenesis. Cytokine levels were measured by ELISA using homogenates of granuloma tissue. TNF-α levels rose sharply, peaking at day 7 and dropping back down to moderate levels by day 14 (FIG. 2). […] Thus, the ability of the compound to block the sharp rise in TNF-α and IL-1β between days 5 and 7 correlated well with the ability of the compound to prevent the increase in vascular index that occurs over the same time points.
# (§8) Tissue extracts were made by homogenizing granulomas in 0.5 ml 5 mM KH2PO4/0.1 gm wet tissue. IL-1β levels were determined using a Cytoscreen Immunoassay Kit (catalog #KMC 0012) from BioSource International, Camarillo, Calif. TNF-α levels were determined using the following assay: plates were coated with hamster anti-murine TNF-α antibody (Genzyme, Cambridge, Mass.), for 2 hours at 37° C., washed and blocked with a casein-BSA solution (5 gram/L for each) for 1 hour at 37° C., the samples were added and incubated at 4° C. overnight. […] The reaction was terminated with 25 ul 0.1M NaF per well, the O.D. read at 460 nm. Sample values for both ELISAs are calculated using DeltaSoft ELISA analysis software (Biomettalics Inc., Princeton, N.J.).
# [5] = system: IL-1β; assay: IL-1β levels in granuloma tissue homogenates by ELISA; assay type: in vivo, mice; details: 30 mg/kg orally twice a day; peak at day 7
# Description: as §7, §8
Compound,"vascular index (VI) compared to control at day 3 ([1]; 30 mg/kg orally twice a day from day 0, day 3)","vascular index (VI) compared to control at days 5, 7 and 14 ([1]; 30 mg/kg orally twice a day from day 0, days 5, 7 and 14)","decrease in the vascular index (in words) ([1]; day 6 granuloma, dosing from induction)",maximum reduction in vascular index ([1]; day 6 granuloma),"granuloma size over time course ([2]; 30 mg/kg orally twice a day from day 0, days 3, 5, 7 and 14)",effect on granuloma size as measured by dry weight [2],"vasculature of granuloma, microscopic evaluation [3]",TNF-α levels in granuloma [4],IL-1β expression in granuloma [5]
"Nc1nccc(-c2c(-c3ccc(F)cc3)ncn2C2CCNCC2)n1 [Compound I, 1-Piperidine-4-(4-fluorophenyl)-5-(2-aminopyrimidin-4-yl)imidazole]",did not cause a significant reduction in VI,lowered significantly,significant and dose dependent decrease,44%,unaffected by the compound,Neither Compound I nor medroxyprogesterone had an effect,striking reduction in the vasculature,greatly reduced TNF-α levels,effectively blocked the increased IL-1β expression
medroxyprogesterone [reference compound],,,,50%,,Neither Compound I nor medroxyprogesterone had an effect,,,
